The subject of one series is CYP1A1. As to the kind of experiment: CYP1A1 mRNA induction in primary human hepatocytes. In kind it is cell-based. To be noted: 24 h, dose-dependent. As to the method: Rat hepatocytes were isolated in a perfusion procedure as described previously (Elliget and Kolaja, [1983]; Waring et al., [2001]). The beagle dog hepatocytes were isolated in the same manner, except for adjustment of flow rate and buffer volume to scale to liver size. Cells were plated at a seeding density of 1.0 × 10^6 cells per well on 6-well, collagen-type I coated plates (BD Biosciences, Bedford, MA) in hepatocyte plating medium (Celsis, Baltimore, MD). Cells were allowed to attach for 24 h in a 37°C humidified incubator with a 5% CO2 atmosphere and were dosed for 24 h (rat) or 48 h (dog) with vehicle control [0.1% DMSO (v/v)] or 10 μM A-998679 in fresh treatment media (Celsis hepatocyte incubation media) every 24 h. After the last incubation, cells were lysed in 1 ml of Qiazol (Qiagen) and stored at −80°C until RNA isolation. Cryopreserved human hepatocytes (donor designation Hu4198; Invitrogen Life Technologies, Carlsbad, CA) were thawed and plated according to the manufacturer's protocol and allowed to incubate for 24 h. […]
RNA samples were diluted with RNase-free molecular biology grade water to a concentration of 20 ng/μl total RNA. […] Results were analyzed by calculating the fold change of CYP1A1 and/or CYP1A2 mRNA levels normalized to 28S rRNA (ΔΔ Ct) in compound treated cells or tissues compared to vehicle levels. […]

The next series deals with CYP1A2. Kind of series: CYP inhibition evaluation in human liver microsomes, CYP1A2 (phenacetin). It is filed as in vitro ADME. The following applies: pH 7.4, probe substrate phenacetin. As to the method:
Incubations were performed in human liver microsomes using probe substrate concentrations similar to their corresponding Km values. Enzyme activity was evaluated in the presence of various concentrations of A-998679. The incubations consisted of the test article at varying concentrations (0–30 μM), probe substrate (concentration ~Km, see Table A2), human liver microsomal protein and 1 mM NADPH in 50 mM phosphate buffer at pH 7.4. Relative quantitation of the metabolites was obtained by LC-MS/MS using an ABSciex (Foster City, CA) API3000 or API4000 Qtrap hybrid linear ion trap mass spectrometer equipped with a TurboIonspray source using either PerkinElmer series 200 pumps or Agilent 1100 series pump with a Leap autosampler. Analytes were separated using a Phenomenex Prodigy ODS(3) 5 μm, 50 × 2.0 mm column at 50°C, eluted and detected under the specific conditions listed in Tables A3, A4, and A5. The analyte to internal standard peak area ratios were determined using Analyst 1.4 software (Applied Biosytems, Carlsbad, CA). The peak area ratios observed in the presence of test article were compared to the vehicle control in order to determine percent activity. To determine the IC50, the data were plotted as Log [dose] μM vs. % inhibition, and analyzed with a sigmoidal dose-response (variable slope) fitting equation. […]

A further series addresses T1, rat Cyp1a1 (Rattus norvegicus, UniProt P00185).
T1 construct: purchased BD Gentest; host or cells: baculovirus infected insect cells
Kind of series: Recombinant rat Cyp phenotype profiling, 1A1. In kind it is in vitro ADME. The following applies: recombinant rat Cyp 1A1 (200 pmol/ml), 60 min. As to the method:
Identification of the drug metabolizing enzymes (DMEs) of A-998679 was studied in cDNA expressed recombinant enzymes prepared from baculovirus infected insect cells over-expressing rat Cyp isoforms (BD Gentest, Woburn, MA) as listed in Table 2. Incubations were conducted in duplicate using Supersomes. The incubation mixture contained 100 pmol/ml of enzymes, except for Cyp1a1 (200 pmol/ml), 0.1 or 0.21 μM of [^3H]A-998679 in 100 mM phosphate buffer (pH 7.4). Reactions were initiated with the addition of NADPH at a final concentration of 1 mM and incubated at 37°C for 60 min. At the end of the incubation period, the incubations were terminated by the addition of acetonitrile/ethanol (50/50, v/v) solution. Insect control samples lacking expressed enzyme were used as negative control. The degree of metabolism of A-998679 was assessed by percent of parent remaining using the radio-HPLC method described below.
Radiolabeled components from the above assays were profiled following separation by HPLC with on line radioflow detector. The system consisted of an Agilent 1100 Series quaternary pump and autosampler connected to a Packard 500TR flow scintillation detector. The data were processed using the Radiomatic™ Flo-one® software v3.65. The scintillant (Perkin Elmer FLO-SCINT™ III) flow was maintained at 3 ml/min. […]

This note sets out measurements from paper PMC3481155, “AhR activation underlies the CYP1A autoinduction by A-998679 in rats” (Frontiers in Genetics, 2012).

Structures are written as SMILES. pIC50: −log10 of the molar value.

T1 sequence (P00185 whole entry): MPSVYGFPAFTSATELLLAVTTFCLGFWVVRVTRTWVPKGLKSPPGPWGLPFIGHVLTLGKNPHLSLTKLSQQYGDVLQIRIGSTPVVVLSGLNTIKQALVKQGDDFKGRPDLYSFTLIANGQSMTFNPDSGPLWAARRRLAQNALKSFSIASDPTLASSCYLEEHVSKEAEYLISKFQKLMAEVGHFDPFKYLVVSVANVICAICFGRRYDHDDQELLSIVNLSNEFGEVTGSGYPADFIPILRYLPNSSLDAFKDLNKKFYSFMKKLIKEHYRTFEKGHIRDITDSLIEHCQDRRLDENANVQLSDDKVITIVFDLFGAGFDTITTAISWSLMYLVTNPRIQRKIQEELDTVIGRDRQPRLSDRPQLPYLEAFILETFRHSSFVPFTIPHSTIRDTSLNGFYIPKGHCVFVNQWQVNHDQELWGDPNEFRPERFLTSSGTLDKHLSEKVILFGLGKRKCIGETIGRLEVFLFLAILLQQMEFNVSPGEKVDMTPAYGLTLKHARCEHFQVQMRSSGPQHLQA

As to `N#Cc1cccc(-c2noc(-c3cccnc3)n2)c1` [A-998679, 3-(5-pyridin-3-yl-1,2,4-oxadiazol-3-yl) benzonitrile], in the series on CYP1A1, the “lowest concentration inducing CYP1A1 mRNA” value was determined as 3 µM. In the series with CYP1A2, this compound gave a pIC50 of 6.34. The “% parent remaining” value at rat Cyp1a1 (0.10 μM) and on rat Cyp1a1 (0.21 μM) was 0% each time.

In general, pIC50 refers to the IC50 on a negative log10 scale, so that one unit is a factor of ten.
